{"source": "patent US8679832B2", "about": "“Detection of protein translocation by beta-galactosidase reporter fragment complementation” (The Board of Trustees of the Leland Stanford Junior …, priority 2004, dated 2014)", "key": {"C1A domain from PKCγ": {"target": "T1, C1A domain from PKCγ (Homo sapiens, UniProt P05129)", "T1 construct": "the C1A domain from PKCγ was fused to four of the GFP-α point mutants; β-galactosidase α peptide carrying H31R, E41Q, N39D or N39Q (β-gal numbering; the mutation lies in the tag, not in PKCγ); expressed in transfected cells; host or cells: NIH 3T3 cells expressing tEGFR-ω", "assay": "Plasma membrane translocation assay: C1A domain of PKCγ fused to GFP-α mutants, tEGFR-ω in NIH 3T3 cells, β-galactosidase complementation", "format": "cell-based", "text": "Creation of a plasma membrane translocation assay required expression of the ω fragment at the membrane which was achieved using the tEGFR-ω construct. When the target protein-α fusion move from the cytosol to the membrane, the local increased concentration of a peptide should drive complementation as illustrated in FIG. 4B. To determine which of the mutants would work best in this type of assay the C1A domain from PKCγ was fused to four of the GFP-α point mutants that complemented to varying degrees, H31R, E41Q, N39D, and N39Q. […] The ω fragment was tethered to the plasma membrane using the extracellular and transmembrane regions of the EGFR. Four of the mutants were fused to the C1A domain of PKCγ and co-expressed with the tEGFR. Their responses to 1 μM PMA for 20 min were expressed as a fold induction over background. The C1A domain efficiently translocated to the plasma membrane when exposed to phorbol esters such as PMA (FIG. 4C). The fusion proteins were expressed in NIH 3T3 cells expressing the tEGFR-ω, and assayed for increased complementation in the presence of PMA for 30 min.\nThe translocation of the C1A domain in response to PMA stimulation has been extensively characterized by fusion to GFP. The largest increase in fluorescence at the plasma membrane in response to PMA was reported to be 70% with the lowest dose of PMA detected using these methods being between 10 and 100 nM. […] Importantly, the requirement of the co fragment for complementation ensured that enzyme activity was only generated where the co-fragment was localized. Thus, the assay measured increases in protein concentration at a specific location in the cell."}, "C1A domain": {"target": "T2, C1A domain (Homo sapiens, UniProt P05129)", "T2 construct": "The translocation of the C1A domain in response to PMA stimulation has been extensively characterized by fusion to GFP", "conditions": "C1A-GFP, response to PMA, reported; cited from earlier work"}, "glucocorticoid receptor": {"target": "glucocorticoid receptor (Homo sapiens, UniProt P04150)", "sequence (P04150 whole entry, species assumed, the tested form may be a part)": "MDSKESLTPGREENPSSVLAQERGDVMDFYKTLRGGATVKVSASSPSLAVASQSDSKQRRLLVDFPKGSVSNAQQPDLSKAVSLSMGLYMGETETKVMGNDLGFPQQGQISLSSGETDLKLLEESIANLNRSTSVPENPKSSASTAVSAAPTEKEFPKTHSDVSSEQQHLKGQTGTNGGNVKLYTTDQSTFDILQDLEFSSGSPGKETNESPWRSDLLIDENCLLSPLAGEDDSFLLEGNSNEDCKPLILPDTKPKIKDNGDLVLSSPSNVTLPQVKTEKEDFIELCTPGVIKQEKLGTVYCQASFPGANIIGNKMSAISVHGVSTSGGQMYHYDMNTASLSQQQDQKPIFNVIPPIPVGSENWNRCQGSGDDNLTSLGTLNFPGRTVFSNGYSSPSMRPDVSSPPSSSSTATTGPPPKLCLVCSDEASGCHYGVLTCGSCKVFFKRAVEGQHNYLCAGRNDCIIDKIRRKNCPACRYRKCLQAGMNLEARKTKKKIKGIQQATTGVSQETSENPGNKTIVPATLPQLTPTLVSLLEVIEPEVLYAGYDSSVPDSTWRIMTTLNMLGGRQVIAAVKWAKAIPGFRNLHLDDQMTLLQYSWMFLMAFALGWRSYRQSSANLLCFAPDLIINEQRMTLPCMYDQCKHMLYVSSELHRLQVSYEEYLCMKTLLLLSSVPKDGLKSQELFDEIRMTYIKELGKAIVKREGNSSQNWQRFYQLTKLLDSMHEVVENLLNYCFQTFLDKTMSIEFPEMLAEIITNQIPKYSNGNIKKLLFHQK", "conditions": "30 min of treatment", "text": "To test the applicability of the system to a physiological translocation event the glucocoticoid receptor was fused to the amino-terminus of the GFP-α fusion. The glucocoticoid receptor is a nuclear steroid hormone receptor that undergoes a robust nuclear translocation in response to treatment with various hormones including dexamethasone. This construct was stably introduced into both the co-NLS and tEGFR-ω cell lines then assayed for changes in β-galactosidase activity upon treatment of the cells with dexamethasone using the luminescent β-galactosidase substrate.\nCell lines shown in FIG. 3 A were treated with varying concentrations of dexamethasone and assayed over time. […] The GR-α cell lines were treated with 1 μM dexamethasone (red) for 3 hours then stained with the luorescent β-galactosidase DDAO substrate and analyzed by low cytometry."}, "[1]": {"tested_on": "Crm1 mediated nuclear export", "assay": "Nuclear translocation gain of signal assay: NES-GFP-α-NLS co-expressed with ω-NLS, β-galactosidase complementation, luminescent substrate", "format": "cell-based, mouse", "conditions": "leptomycin B for 2 hours, C2C12 myoblasts", "text": "In order to utilize a complementation as a method of quantitatively assessing nuclear translocation events, two systems were designed that are distinct in the localization of the ω-fragment. FIG. 2A is a schematic showing the design of the nuclear translocation assay. In the let panel, the ω fragment is localized to the nucleus with a nuclear localization signal (NLS) and the cytosolic protein of interest is fused to the minimal α peptide. Upon stimulation the α fusion moves to the nucleus and complements the co, increasing β-galactosidase activity. In the right panel, the co fragment is tethered to the plasma membrane using the extracellular and transmembrane regions of EGFR. The cytosolic α-fusion complements spontaneously until stimulation when it translocates to the nucleus which results in a loss of enzyme activity.\nThe gain of signal assay (FIG. 2A left panel) localized the ω to the nucleus through fusion to a triplet SV40 nuclear localization signal (NLS). Thus, an increase in β-galactosidase activity should be observed when the target protein-α fusion moves from the cytosol to the nucleus. The loss of signal assay (FIG. 2 A right panel) localized the ω-fragment to the plasma membrane through fusion to the extracellular and transmembrane regions of the EGF receptor (tEGFR). […]"}, "PH domain of AKT": {"tested_on": "PH domain of AKT", "assay": "AKT PH domain plasma membrane translocation: AKT-GFP-α in 3T3 fibroblasts with tEGFR-ω, luminescent β-galactosidase assay, 96-well", "format": "cell-based", "conditions": "50 ng/ml PDGF, insulin, or sorbitol; 3T3 cells; maximal over time course", "description": "To test whether the system was robust enough to monitor translocation events in response to physiologically relevant stimuli, this system was applied to the translocation of the PH domain of AKT. […] The PH domain of AKT was fused to the GFP-α chimera and expressed in 3T3 fibroblasts harboring the tEGFR-ω protein. […] The cells were stimulated under various conditions, and the translocation of the PH domain was assayed in 96-well dishes by a luminescent measure of β-galactosidase activity."}}, "note": "Where two headings read alike, the source gives them in different places.", "data": [{"molecule": "CCCCCCCCCCCCCC(=O)O[C@@H]1[C@@H](C)[C@@]2(O)[C@@H](C=C(CO)C[C@]3(O)C(=O)C(C)=C[C@@H]23)[C@@H]2C(C)(C)[C@]12OC(C)=O", "note": "[PMA]", "values": [{"measurement": "increase in signal", "setting": "C1A domain from PKCγ; 800 nM PMA (saturating)", "result": 1000, "unit": "%"}, {"measurement": "saturating PMA concentration", "setting": "C1A domain from PKCγ; C1A domain membrane translocation assay", "result": 800, "unit": "nM"}, {"measurement": "increases in enzyme activity in the presence of PMA", "setting": "C1A domain from PKCγ; β-galactosidase complementation, H31R", "result": "700-1000%"}, {"measurement": "largest increase in fluorescence at the plasma membrane", "setting": "C1A domain", "result": 70, "unit": "%"}]}, {"molecule": "C[C@@H]1C[C@H]2[C@@H]3CCC4=CC(=O)C=C[C@]4(C)[C@@]3(F)[C@@H](O)C[C@]2(C)[C@@]1(O)C(=O)CO", "note": "[dexamethasone]", "values": [{"measurement": "difference in β-galactosidase activity", "setting": "glucocorticoid receptor; gain of signal", "result": 100, "unit": "%"}, {"measurement": "difference in β-galactosidase activity", "setting": "glucocorticoid receptor; loss of signal", "result": 25, "unit": "%"}]}, {"molecule": "CCC(=C/[C@H](C)C/C=C/C(C)=C/[C@@H](C)C(=O)[C@@H](C)[C@H](O)[C@@H](C)C/C(C)=C/C(=O)O)/C=C/[C@@H]1OC(=O)C=C[C@@H]1C", "note": "[leptomycin B]", "values": [{"measurement": "increase in β-galactosidase activity", "setting": "[1]", "result": 3.5, "unit": "fold"}]}, {"molecule": "OC[C@@H](O)[C@@H](O)[C@H](O)[C@@H](O)CO", "note": "[sorbitol]", "values": [{"measurement": "increase in β-galactosidase activity", "setting": "PH domain of AKT", "result": 8, "unit": "fold"}]}, {"molecule": "H31R: α peptide of β-galactosidase with H31R mutation, low affinity (MGVITDSLAVVLQRRDWENPGVTQLNRLAARPPFASWRNSEEARTDRPSQQL; E. coli; PEPTIDE (1)..(52) alpha peptide (H31R))", "values": [{"measurement": "induction of β-galactosidase activity in the presence of PMA", "setting": "C1A domain from PKCγ; C1A-GFP-α mutant, 1 μM PMA, NIH 3T3 tEGFR-ω", "result": 7, "unit": "fold"}]}, {"molecule": "platelet-derived growth factor [PDGF]", "values": [{"measurement": "increase in β-galactosidase activity", "setting": "PH domain of AKT", "result": 5, "unit": "fold"}]}, {"molecule": "wt peptide: wild type α peptide of β-galactosidase (MGVITDSLAVVLQRRDWENPGVTQLNRLAAHPPFASWRNSEEARTDRPSQQL; E. coli; PEPTIDE (1)..(52) alpha peptide (wildtype))", "values": [{"measurement": "increase in β-galactosidase activity in the presence of PMA", "setting": "C1A domain from PKCγ; C1A-GFP-α wt peptide, PMA, NIH 3T3 tEGFR-ω", "result": "< 10", "unit": "%"}]}]}
